Source: patent publication US9682976B2, “Protein kinase C inhibitors and uses thereof” (Rigel Pharmaceuticals, Inc., priority 2012, dated 2017)

Test system: PKC mediated IL-2 production
Assay: IL-2 ELISA, human primary T cell, anti CD3+CD28+
Format: cell-based
Conditions: human primary T cells stimulated with αCD3 and αCD28, 24 hours
Method in brief: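 Human peripheral blood T cells, pre-expanded with αCD3/αCD28 and IL-2 and then washed free of IL-2, were pre-incubated with compound for 1 h at 37° C. They were then stimulated on plates coated with […] αCD3 and 5 μg/ml αCD28, or with 0.5 ng/ml PMA plus 0.1 uM ionomycin in the counter assay. IL-2 in supernatants was measured by ELISA after 24 h.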

Structure (SMILES)	EC50 (Homo sapiens, T-cell, 24 h) [µM]	EC50 [µM]
Cn1nnn(-c2cc(Nc3ncc(F)c(N[C@H]4C[C@H]5CCCN5C(C)(C)C4)n3)c(F)cc2C2CC2)c1=O [Compound 18, 1-(5-(4-((7S,8aR)-Octahydro-5,5-dimethylindolizin-7ylamino)-5-fluoropyrimidin-2-ylamino)-2-cyclopropyl-4-fluorophenyl)-4-methyl-1H-tetrazol-5(4H)-one]	0.5 to 1	–
CC(C)OC(=O)COc1cc(F)c(Nc2ncc(F)c(N[C@@H]3C[C@@H]4CCCN4C(C)(C)C3)n2)cc1-n1nnn(C)c1=O [Compound 323, isopropyl 2-(4-(4-((7R,8aS)-octahydro-5,5-dimethylindolizin-7-ylamino)-5-fluoropyrimidin-2-ylamino)-5-fluoro-2-(4,5-dihydro-4-methyl-5-oxotetrazol-1-yl)phenoxy)acetate]	1 to 10	–
Cn1nc2n(c1=O)-c1cc(Nc3ncc(F)c(N[C@@H]4C[C@@H]5CCCN5C(C)(C)C4)n3)ccc1OC2(CO)CO [Compound 288, 5-fluoro-N2-(1H-2,4-dihydron-4,4-di(hydroxymethyl)-2-methyl-[1,2,4]triazolo[3,4-c][1,4]benzoxazin-1-one-8-yl)-N4-((7R,8aS)-octahydro-5,5-dimethylindolizin-7-yl)pyrimidine-2,4-diamine]	1 to 10	–
CC1(C)C[C@H](Nc2nc(Nc3ccc(O[C@@H]4CCN(C5COC5)C[C@H]4F)c(C(F)(F)F)c3)ncc2F)C[C@@H]2CCCN21 [Compound 122]	0.1 to 0.5	–
CC1C(Nc2nc(Nc3cc(OC(F)F)c(C4CC4)cc3F)ncc2F)CC(C)(C)N2CCCC12 (stereo not drawn) [Compound 75]	–	0.1 to 0.5
CC1(C)C[C@H](Nc2nc(Nc3ccc(OC4CCNCC4)c(OC(F)F)c3)ncc2F)C[C@@H]2CCCN21 [Compound 128, N^2-(3-(difluoromethoxy)-4-(piperidin-4-yloxy)phenyl)-N^4-((7R,8aS)-5,5-dimethyloctahydroindolizin-7-yl)-5-fluoropyrimidine-2,4-diamine]	0.1 to 0.5	–
Cn1nnn(-c2cc(Nc3ncc(F)c(NC4CCN5C(CCC5(C)C)C4)n3)c(F)cc2C2CC2)c1=O (single isomer, unassigned) [Compound 34, 1-(5-(5-fluoro-4-(octahydro-3,3-dimethylindolizin-7-ylamino)pyrimidin-2-ylamino)-2-cyclopropyl-4-fluorophenyl)-4-methyl-1H-tetrazol-5(4H)-one]	1 to 10	–
Cn1nc2n(c1=O)-c1cc(Nc3ncc(F)c(N[C@@H]4C[C@@H]5CCCN5C(C)(C)C4)n3)ccc1OCC2(C)O (stereo partly drawn) [Compound 295, 5-fluoro-N2-(1H-2,3,4,5-tetrahydron-2,4-dimethyl-4-hydroxy-[1,2,4]triazolo[4,5-c][1,5]benzoxazepin-1-one-9-yl)-N4-((7R,8aS)-octahydro-5,5-dimethylindolizin-7-yl)pyrimidine-2,4-diamine]	–	0.5 to 1
CC1(C)CC[C@H]2C[C@@H](Nc3nc(Nc4ccc(N5CC6(COC6)C5)c(OC(F)F)c4)ncc3F)CCN21 [Compound 302, N2-(3-(Difluoromethoxy)-4-(2-oxa-6-azaspiro[3.3]heptan-6-yl)phenyl)-N4-((7S,8aS)-3,3-dimethyloctahydroindolizin-7-yl)-5-fluoropyrimidine-2,4-diamine]	0.5 to 1	–
CC1(C)C[C@H](Nc2nc(Nc3ccc(OCCCO)c(C#N)c3)ncc2F)C[C@@H]2CCCN21 [Compound 213, 5-((4-(((7R,8aS)-5,5-dimethyloctahydroindolizin-7-yl)amino)-5-fluoropyrimidin-2-yl)amino)-2-(3-hydroxypropoxy)benzonitrile]	0.1 to 0.5	–
CC1(C)C[C@H](Nc2nc(Nc3ccc(OCC4(CO)COC4)c(-n4cnnn4)c3)ncc2F)C[C@@H]2CCCN21 [Compound 204, (3-((4-((4-(((7R,8aS)-5,5-dimethyloctahydroindolizin-7-yl)amino)-5-fluoropyrimidin-2-yl)amino)-2-(1H-tetrazol-1-yl)phenoxy)methyl)oxetan-3-yl)methanol]	0.5 to 1	–
Cn1nnn(-c2cc(Nc3ncc(F)c(N[C@@H]4C[C@@H]5CCCN5C(C)(C)C4)n3)c(F)cc2OCCN2CCOCC2)c1=O [Compound 195, 1-(5-((4-(((7R,8aS)-5,5-dimethyloctahydroindolizin-7-yl)amino)-5-fluoropyrimidin-2-yl)amino)-4-fluoro-2-(2-morpholinoethoxy)phenyl)-4-methyl-1,4-dihydro-5H-tetrazol-5-one]	0.5 to 1	–
COc1cc(Nc2ncc(F)c(N[C@@H]3C[C@@H]4CCCN4C(C)(C)C3)n2)ccc1O [Compound 208, 4-((4-(((7R,8aS)-5,5-dimethyloctahydroindolizin-7-yl)amino)-5-fluoropyrimidin-2-yl)amino)-2-methoxyphenol]	1 to 10	–
CC1(C)C[C@H](Nc2nc(Nc3cc(-n4nnnc4C4CC4)c(OC4COC4)cc3F)ncc2F)C[C@@H]2CCCN21 [Compound 255, N2-(5-(5-cyclopropyl-1H-tetrazol-1-yl)-2-fluoro-4-(oxetan-3-yloxy)phenyl)-5-fluoro-N4-((7R,8aS)-octahydro-5,5-dimethylindolizin-7-yl)pyrimidine-2,4-diamine]	< 0.1	–
COc1ccc(Nc2ncc(F)c(N[C@@H]3C[C@@H]4CCCN4C(C)(C)C3)n2)cc1-n1nnn(CCO)c1=O [Compound 280, 1-(5-(4-((7R,8aS)-octahydro-5,5-dimethylindolizin-7-ylamino)-5-fluoropyrimidin-2-ylamino)-2-methoxyphenyl)-4-(2-hydroxyethyl)-1H-tetrazol-5(4H)-one]	0.5 to 1	–
CN(C)CCOc1cc(F)c(N(CCN(C)C)c2ncc(F)c(N[C@@H]3C[C@@H]4CCCN4C(C)(C)C3)n2)cc1-n1nnn(C)c1=O [Compound 193, 1-(2-(2-(dimethylamino)ethoxy)-5-((2-(dimethylamino)ethyl)(4-(((7R,8aS)-5,5-dimethyloctahydroindolizin-7-yl)amino)-5-fluoropyrimidin-2-yl)amino)-4-fluorophenyl)-4-methyl-1,4-dihydro-5H-tetrazol-5-one]	0.1 to 0.5	–
COCC1(COC)Oc2ccc(Nc3ncc(F)c(N[C@@H]4C[C@@H]5CCCN5C(C)(C)C4)n3)cc2-n2c1nn(C)c2=O [Compound 296, 5-fluoro-N2-(1H-2,4-dihydron-2-methyl-4,4-di(methoxymethyl)[1,2,4]triazolo[3,4-c][1,4]benzoxazin-1-one-8-yl)-N4-((7R,8aS)-octahydro-5,5-dimethylindolizin-7-yl)pyrimidine-2,4-diamine]	0.5 to 1	–
Cn1nnn(-c2cc(Nc3ncc(F)c(N[C@@H]4C[C@@H]5CCCN5C(C)(C)C4)n3)c(F)cc2O)c1=O [Compound 89, 1-(5-(4-((7R,8aS)-octahydro-5,5-dimethylindolizin-7-ylamino)-5-fluoropyrimidin-2-ylamino)-4-fluoro-2-hydroxyphenyl)-4-methyl-1H-tetrazol-5(4H)-one]	1 to 10	–
CC1(C)C[C@H](Nc2nc(Nc3ccc(OCCO)c(C(F)(F)F)c3)ncc2F)C[C@@H]2CCCN21 [Compound 131, 2-(4-((4-(((7R,8aS)-5,5-dimethyloctahydroindolizin-7-yl)amino)-5-fluoropyrimidin-2-yl)amino)-2-(trifluoromethyl)phenoxy)ethan-1-ol]	< 0.1	–
CC1(C)C[C@H](Nc2nc(Nc3ccc(N4CC(C(N)=O)C4)c(C(F)(F)F)c3)ncc2F)C[C@@H]2CCCN21 [Compound 324, 1-(4-(4-((7R,8aS)-octahydro-5,5-dimethylindolizin-7-ylamino)-5-fluoropyrimidin-2-ylamino)-2-(trifluoromethyl)phenyl)azetidine-3-carboxamide]	0.5 to 1	–
C[C@@H](O)COc1cc(F)c(Nc2ncc(C#N)c(N[C@@H]3C[C@@H]4CCCN4C(C)(C)C3)n2)cc1-n1nnn(C)c1=O [Compound 314, 4-((7R,8aS)-octahydro-5,5-dimethylindolizin-7-ylamino)-2-(4-((R)-2-hydroxypropoxy)-2-fluoro-5-(4,5-dihydro-4-methyl-5-oxotetrazol-1-yl)phenylamino)pyrimidine-5-carbonitrile]	0.1 to 0.5	–
CC1(C)C[C@H](Nc2nc(Nc3ccc(N4CC(O)C4)c(C(F)(F)F)c3)ncc2F)C[C@@H]2CCCN21 [Compound 326, 1-(4-(4-((7R,8aS)-octahydro-5,5-dimethylindolizin-7-ylamino)-5-fluoropyrimidin-2-ylamino)-2-(trifluoromethyl)phenyl)azetidin-3-ol]	0.1 to 0.5	–
CC1(C)C[C@H](Nc2nc(Nc3ccc(OCCO)c(F)c3)ncc2F)C[C@@H]2CCCN21 [Compound 130, 2-(4-((4-(((7R,8aS)-5,5-dimethyloctahydroindolizin-7-yl)amino)-5-fluoropyrimidin-2-yl)amino)-2-fluorophenoxy)ethan-1-ol]	0.5 to 1	–
COCC1(COC)Oc2ccc(Nc3ncc(F)c(N[C@@H]4C[C@@H]5CCCN5C(C)(C)C4)n3)cc2-n2nnnc21 [Compound 316, N^2-(4,5-dihydro-4,4-bis(methoxymethyl)tetrazolo[5,1-c][1,4]benzoxazin-8-yl)-N^4-((7R,8aS)-octahydro-5,5-dimethylindolizin-7-yl)-5-fluoropyrimidin-2,4-diamine]	< 0.1	–
CNc1nnnn1-c1cc(Nc2ncc(F)c(N[C@@H]3C[C@@H]4CCCN4C(C)(C)C3)n2)c(F)cc1OC1COC1 [Compound 258, 5-fluoro-N2-(2-fluoro-5-(5-(methylamino)-1H-tetrazol-1-yl)-4-(oxetan-3-yloxy)phenyl)-N4-((7R,8aS)-octahydro-5,5-dimethylindolizin-7-yl)pyrimidine-2,4-diamine]	1 to 10	–
Cn1nnn(-c2cc(Nc3ncc(F)c(NC4CCN5CCCC5C4)n3)c(F)cc2C2CC2)c1=O (stereo not drawn) [Compound 29]	–	1 to 10
Cn1nnn(-c2cc(Nc3ncc(F)c(N[C@@H]4C[C@@H]5CCCN5C(C)(C)C4)n3)c(F)cc2OC(C)(C)CO)c1=O [Compound 85, 1-(2-(1-hydroxy-2-methylpropan-2-yloxy)-5-(4-((7R,8aS)-octahydro-5,5-dimethylindolizin-7-ylamino)-5-fluoropyrimidin-2-ylamino)-4-fluorophenyl)-4-methyl-1H-tetrazol-5(4H)-one]	0.1 to 0.5	–
